# Measurements taken from patent US12077503B2, “Substituted cyclic amides and their use as herbicides” (FMC CORPORATION, priority 2015, dated 2024).
# Experiments:
# Type in all cases: in vivo
# [1] = system: wheat (Triticum aestivum); test: Test A postemergence
# Description: (§1) Seeds of plant species selected from barnyardgrass (Echinochloa crus-galli), Kochia (Kochia scoparia), ragweed (common ragweed, Ambrosia elatior), ryegrass, Italian (Italian ryegrass, Lolium multiflorum), crabgrass, large (Digitaria sanguinalis), giant foxtail (Setaria faberii), green foxtail (Setaria viridis), morningglory (Ipomoea spp.), pigweed (Amaranthus retroflexus), velvetleaf (Abutilon theophrasti), wheat (Triticum aestivum), and corn (Zea mays) were planted into a blend of loam soil and sand and treated preemergence with a directed soil spray using test chemicals formulated in anon-phytotoxic solvent mixture which included a surfactant.
# (§2) At the same time, plants selected from these crop and weed species and also blackgrass (Alopecurus myosuroides), and Galium (catchweed bedstraw, Galium aparine) were planted in pots containing the same blend of loam soil and sand and treated with postemergence applications of test chemicals formulated in the same manner. Plants ranged in height from 2 to 10 cm and were in the one- to two-leaf stage for the postemergence treatment. Treated plants and untreated controls were maintained in a greenhouse for approximately 10 d, after which time all treated plants were compared to untreated controls and visually evaluated for injury. Plant response ratings, summarized in Table A, are based on a 0 to 100 scale where 0 is no effect and 100 is complete control. A dash (-) response means no test result.
# [2] = system: ragweed (common ragweed, Ambrosia elatior); test: Test A postemergence
# Description: as §1, §2
# [3] = system: pigweed (Amaranthus retroflexus); test: Test A postemergence
# Description: as §1, §2
# Kochia (Kochia scoparia) [4] = test: Test A postemergence
# Description: as §1, §2
# [5] = system: barnyardgrass (Echinochloa crus-galli); test: Test A postemergence
# Description: as §1, §2
# [6] = system: giant foxtail (Setaria faberii); test: Test A postemergence
# Description: as §1, §2
# [7] = system: ryegrass, Italian (Italian ryegrass, Lolium multiflorum); test: Test A postemergence
# Description: as §1, §2
# corn (Zea mays) = test: Test A postemergence
# Description: as §1, §2
# [8] = system: Galium (catchweed bedstraw, Galium aparine); test: Test A postemergence
# Description: as §1, §2
# [9] = system: blackgrass (Alopecurus myosuroides); test: Test A postemergence
# Description: as §1, §2
# [10] = system: ragweed (common ragweed, Ambrosia elatior); test: Test A preemergence; details: Preemergence; for Plant response rating, Ragweed: 125 g ai/ha, visual injury after approximately 10 d, 0 to 100 scale where 0 is no effect and 100 is complete control; for Ragweed plant response rating (0 to 100 scale, 0 is no effect, 100 is complete control): 500 g ai/ha, visual injury approx. 10 d
# Description: as §1, §2
# [11] = system: pigweed (Amaranthus retroflexus); test: Test A preemergence; details: Preemergence; for Plant response rating, Pigweed: 125 g ai/ha, visual injury after approximately 10 d, 0 to 100 scale where 0 is no effect and 100 is complete control; for Pigweed plant response rating (0 to 100 scale, 0 is no effect, 100 is complete control): 500 g ai/ha, visual injury approx. 10 d
# Description: as §1, §2
# Kochia (Kochia scoparia) [12] = test: Test A preemergence; details: Preemergence; for Plant response rating, Kochia: 125 g ai/ha, visual injury after approximately 10 d, 0 to 100 scale where 0 is no effect and 100 is complete control; for Kochia plant response rating (0 to 100 scale, 0 is no effect, 100 is complete control): 500 g ai/ha, visual injury approx. 10 d
# Description: as §1, §2
# [13] = system: barnyardgrass (Echinochloa crus-galli); test: Test A preemergence; details: Preemergence; for Plant response rating, Barnyardgrass: 125 g ai/ha, visual injury after approximately 10 d, 0 to 100 scale where 0 is no effect and 100 is complete control; for Barnyardgrass plant response rating (0 to 100 scale, 0 is no effect, 100 is complete control): 500 g ai/ha, visual injury approx. 10 d
# Description: as §1, §2
# [14] = system: giant foxtail (Setaria faberii); test: Test A preemergence; details: Preemergence; for Plant response rating, Foxtail, Giant: 125 g ai/ha, visual injury after approximately 10 d, 0 to 100 scale where 0 is no effect and 100 is complete control; for Foxtail, Giant plant response rating (0 to 100 scale, 0 is no effect, 100 is complete control): 500 g ai/ha, visual injury approx. 10 d
# Description: as §1, §2
# [15] = system: ryegrass, Italian (Italian ryegrass, Lolium multiflorum); test: Test A preemergence; details: Preemergence; for Plant response rating, Ryegrass, Italian: 125 g ai/ha, visual injury after approximately 10 d, 0 to 100 scale where 0 is no effect and 100 is complete control; for Ryegrass, Italian plant response rating (0 to 100 scale, 0 is no effect, 100 is complete control): 500 g ai/ha, visual injury approx. 10 d
# Description: as §1, §2
# [16] = 125 g ai/ha, postemergence, visual rating after approx. 10 d, 0 to 100 scale (0 no effect, 100 complete control)
# [17] = Postemergence, 500 g ai/ha, 0 to 100 scale where 0 is no effect and 100 is complete control
Structure (SMILES),"Plant response rating, Wheat [1, 16]","Plant response rating, Wheat [1, 17]","Plant response rating, Ragweed [2, 16]","Plant response rating, Ragweed [2, 17]","Plant response rating, Pigweed [3, 16]","Plant response rating, Pigweed [3, 17]","Plant response rating, Kochia (Kochia (Kochia scoparia) [4]; [16])","Plant response rating, Kochia (Kochia (Kochia scoparia) [4]; [17])","Plant response rating, Barnyardgrass [5, 16]","Plant response rating, Barnyardgrass [5, 17]","Plant response rating, Foxtail, Giant [6, 16]","Plant response rating, Foxtail, Giant [6, 17]","Plant response rating, Ryegrass, Italian [7, 16]","Plant response rating, Ryegrass, Italian [7, 17]","Plant response rating, Corn (corn (Zea mays); [16])","Plant response rating, Corn (corn (Zea mays); [17])","Plant response rating, Galium [8, 16]","Plant response rating, Galium [8, 17]","Plant response rating, Blackgrass [9, 16]","Plant response rating, Blackgrass [9, 17]",also measured
O=C1NCC(c2ccc(OC(F)F)cc2)C1C(=O)Nc1cccc(F)c1F (stereo not shown) [Compound 561],30,70,20,40,60,70,70,80,90,90,90,90,20,60,10,60,60,60,50,70,"Plant response rating, Ragweed [10]: 80; Ragweed plant response rating (0 to 100 scale, 0 is no effect, 100 is complete control) [10]: 80; Plant response rating, Pigweed [11]: 80; Pigweed plant response rating (0 to 100 scale, 0 is no effect, 100 is complete control) [11]: 90; Plant response rating, Kochia (Kochia (Kochia scoparia) [12]): 70; Kochia plant response rating (0 to 100 scale, 0 is no effect, 100 is complete control) (Kochia (Kochia scoparia) [12]): 90; Plant response rating, Barnyardgrass [13]: 90; Barnyardgrass plant response rating (0 to 100 scale, 0 is no effect, 100 is complete control) [13]: 90; Plant response rating, Foxtail, Giant [14]: 90; Foxtail, Giant plant response rating (0 to 100 scale, 0 is no effect, 100 is complete control) [14]: 90; Plant response rating, Ryegrass, Italian [15]: 0; Ryegrass, Italian plant response rating (0 to 100 scale, 0 is no effect, 100 is complete control) [15]: 40"
CN1CC(c2ccc(Br)cc2)C(C(=O)Nc2cccc(F)c2F)C1=O (stereo not shown) [Compound 564],40,60,50,60,40,70,80,80,90,90,90,90,60,70,70,80,70,70,40,70,"Plant response rating, Ragweed [10]: 80; Ragweed plant response rating (0 to 100 scale, 0 is no effect, 100 is complete control) [10]: 90; Plant response rating, Pigweed [11]: 90; Pigweed plant response rating (0 to 100 scale, 0 is no effect, 100 is complete control) [11]: 90; Plant response rating, Kochia (Kochia (Kochia scoparia) [12]): 80; Kochia plant response rating (0 to 100 scale, 0 is no effect, 100 is complete control) (Kochia (Kochia scoparia) [12]): 90; Plant response rating, Barnyardgrass [13]: 90; Barnyardgrass plant response rating (0 to 100 scale, 0 is no effect, 100 is complete control) [13]: 100; Plant response rating, Foxtail, Giant [14]: 90; Foxtail, Giant plant response rating (0 to 100 scale, 0 is no effect, 100 is complete control) [14]: 100; Plant response rating, Ryegrass, Italian [15]: 40; Ryegrass, Italian plant response rating (0 to 100 scale, 0 is no effect, 100 is complete control) [15]: 90"
